Patent publication EP4119138A1 (Universität Hamburg, priority 2021, dated 2023)

Tests used:
S9 metabolism assay = assay type: in vitro ADME, rat; conditions: for amide cleavage: hydrolysis study in S9 extract of rat liver, identified via LC-MS; for Metabolic stability [% remaining at 1h in rat S9 fraction]: test compound 100 µM, 37 °C
Method: Stock solutions of all test compounds (100 mM) were prepared in DMSO, stored at-20 °C and diluted in PB to 600 µM prior to the assay. Rat liver S9 fractions (SigmaAldrich, Lot # SLCC9026 and # SLCB2232) were combined, aliquoted (200 µL), stored at -80 °C and thawed to 0 °C before use. The reaction was performed in triplicates in eppendorf tubes with total volumes of 300 µL containing MgCl2 (5 mM), NADPH (5 mM), rat S9 fraction (1 mg) and the test compound (100 µM) in phosphate buffer (38.5 mM Na2HPO4, 11.5 mM KH2PO4, pH 7.3). 7-Ethoxycoumarin was assessed as reference inhibitor and a control without inhibitor but an equivalent amount of buffer instead was run. The ice cooled S9 fraction was added to a solution of MgCl2 and NADPH in PB and the resulting mixture was preincubated for 10 minutes at 37 °C in a shaker. Subsequently the reaction was started by addition of the test compound (50 µL), followed by threefold pipetting. After 0 h, 1 h and 3 h, samples of 50 µL were taken from the reaction, mixed with 150 µL ice-cooled methanol and centrifuged at 14000 rpm and 4 °C for 15 minutes. The supernatant was filtered with a syringe fiter, immediately quantified on HPLC and stored at -20 °C until LC/MS analysis.

hDHODH = hDHODH (Homo sapiens, UniProt Q02127); test: hDHODH enzyme assay (DCPIP absorption, initial velocities); assay type: biochemical; conditions: for IC50: hDHODH inhibition, HsDHODH29-396 35 nM, 25 °C
hDHODH, sequence (Q02127 29-395 limits assumed): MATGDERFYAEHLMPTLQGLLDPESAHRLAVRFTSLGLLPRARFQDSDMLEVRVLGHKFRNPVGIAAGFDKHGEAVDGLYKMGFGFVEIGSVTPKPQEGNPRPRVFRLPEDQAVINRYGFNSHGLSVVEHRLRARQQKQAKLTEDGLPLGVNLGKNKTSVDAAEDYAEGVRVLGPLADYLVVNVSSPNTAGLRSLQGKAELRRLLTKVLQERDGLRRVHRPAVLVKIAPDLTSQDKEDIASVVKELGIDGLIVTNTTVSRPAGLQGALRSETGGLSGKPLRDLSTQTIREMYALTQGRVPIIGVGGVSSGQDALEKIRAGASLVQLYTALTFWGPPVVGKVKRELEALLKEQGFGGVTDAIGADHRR
Method: Expression and purification of the enzyme was carried out following the protocol of DAS et al. (SAR-Based Optimization of a 4-Quinoline Carboxylic Acid Analogue with Potent Antiviral Activity. ACS Med. Chem. Lett. 2013, 4, 517-521). The prepared enzyme stock solution (325 µM) was thawed to 0 °C and carefully diluted to 87.5 nM with ice-cooled Tris-HCl buffer (50 mM Tris-HCl, 0.1 % Triton X-100, pH 8.0)). Stock solutions of all test compounds (100 mM), L-DHO (250 mM) and CoQ1 (250 mM) were prepared in DMSO, stored at -20 °C and thawed to room temperature before use. The reaction was performed in triplicates in a 96 well plate with total volumes of 200 µL containing L-dihydroorotate (L-DHO; 0.10 mM), coenzyme Q1 (CoQ1; 25 µM), 2,6-dichlorophenolindophenol (DCPIP; 60 µM), HsDHODH29-396 (35 nM) and the test compound (varying concentrations) in Tris-HCl buffer.
The compound stock solutions were diluted in Tris-HCl buffer to give nine different concentrations and each sample was treated with a freshly prepared substrate mixture containing L-DHO, CoQ1 and DCPIP. By simultaneous addition of 80 µL ice-cooled enzyme solution ([…]) per well and immediate mixing by thorough pipetting, the reaction was started. The absorption of the mixture was monitored using a spectrophotometer (Berthold Technologies TriStar2S LB942 Multimode Reader, ICE software) with one data point per 10 seconds at an excitation wavelength of 600 nm and a temperature of 25 °C. During the first 200 s from enzyme addition, linear initial enzyme velocites were recorded, from which the IC50 values were calculated by non-linear fitting (Origin software) to the following equation: v = (V0)/(1 + (c)/(IC50)) [formula] wherein • v is the determined initial, linear enzyme velocity, • V0 is the calculated enzyme velocity without test compound and • c is the concentration of added test compound.

LASV Ba366 = test: microbe, parasite or virus in culture; assay type: cell-based, Lassa virus; conditions: Mammarenavirus lassaense, Vero, 72 h
CCHFV Afg 09-2990 = test: microbe, parasite or virus in culture; assay type: cell-based, Crimean-Congo hemorrhagic fever orthonairovirus; conditions: Orthonairovirus haemorrhagiae, Vero, 72 h
in vitro = conditions: African green monkey
EBOV Mayinga = test: microbe, parasite or virus in culture; assay type: cell-based, Ebola virus; conditions: Zaire ebolavirus, Vero, 96 h
[1] = system: human PBMCs (CD4/CD8 T cells); test: Lymphocyte inhibition, Cytostim-stimulated PBMCs, flow cytometry; assay type: cell-based; conditions: T-cell stimulation by Cytostim, read-out: IC50 for CD4 and CD8 replication
Method: Lymphocyte inhibition was determined by using human PBMCs (peripheral blood mononuclear cells) as cell culture. The inhibitor compound was added at 8 different concentrations with each determination in triplicate and one control without inhibitor. T-cell stimulation was done by Cytostim, a reagent that binds T-cell receptors to MHC molecules of the antigen-presenting cells in an antibody-based manner and enables T-cell stimulation. Quantification was achieved by a flow cytometry-based method (Facs analysis) with staining of PBMCs with eFluor670 (eBioscience(TM)). The PBMCs are assigned to their populations (CD4/CD8 T cells) by use of other markers.

[2] = Octanol-water partition coefficient (logD); assay type: physicochemical; conditions: PBS pH 7.4 / octanol, 25 °C; read-out: Log D (PBS pH 7.4/ octanol)
Method: Octanol and phosphate buffered saline (PBS, 137 mM NaCl, 2.7 mM KCl, 10 mM Na2HPO4, 2.0 mM KH2PO4, pH 7.4) were saturated with each other prior to the experiment. Stock solutions of all test compounds (100 mM) were prepared in DMSO, stored at - 20 °C and diluted with the saturated PBS to 100 µM prior to the experiment. The experiment was performed in duplicates in 2 mL HPLC-vials. 300 µL of the test compound solution (100 µM) was overlayered with 300 µL saturated octanol. The emulsions were vortexed for 1 min and shaken for 1 h at 180 rpm and 25 °C. After phase separation, the aqueous phases and the initial 100 µM compound solution were quantified on HPLC.

[3] = Membrane permeability (PAMPA assay); assay type: in vitro ADME; conditions: PBS pH 7.4, 5 h, 25 °C
Method: Stock solutions of all test compounds (100 mM) were prepared in DMSO, stored at -20 °C and diluted with phosphate buffered saline (PBS, 137 mM NaCl, 2.7 mM KCl, 10 mM Na2HPO4, 2.0 mM KH2PO4, pH 7.4) to 200 µM prior to the experiment. The assay was performed in triplicates in a 96 well Corning Gentest Precoated PAMPA Plate System, which was stored at -20 °C and thawed to room temperature for 1 h prior to the assay. Wells of the donor plate were filled with 300 µL of the compound solutions (200 µM) and 200 µL PBS were added to the wells of the receiver plate. Two controls without inhibitor but an equivalent amount of buffer instead was run. Bubble-free assembling of the two plates was followed by 5 h incubation at 25 °C. Finally, the plates were carefully separated from each other. 150 µL of each well of both plates were transferred to black 96-well FluoroNunc™ plates and quantified on fluorescence spectrophotometer (Berthold Technologies TriStar^2S LB942 Multimode Reader, ICE software). Membrane Permeabilities were calculated using the following equation: Ppampa = (−ln(1−(cacc (t))/(ceq)))/(Aperm ⋅((1)/(Vdon)+(1)/(Vacc))⋅t) [formula] wherein • Cacc(t) is the compound concentration in acceptor well at time t, • Aperm is the area of the membrane filter (0.3 cm^2), • Vdon is the donor well volume (0.3 mL), • Vacc is the acceptor well volume (0.2 mL) and • Ceq is the equilibrium concentration with ceq = (cdon (t)⋅Vdon + cacc (t)⋅Vacc)/(Vdon + Vacc) [formula] where cdon(t) is the compound concentration in donor well at time t.

CCC(C)c1ccccc1OCCCC(=O)Nc1ccccc1C(=O)O (centres unmarked) [reference compound]
amide cleavage (S9 metabolism assay): showed a cleavage of the amide bond

CCC(=O)Nc1ccc(C#Cc2ccc(N3CCOCC3)cc2)cc1C(=O)O [Example 4]
IC50 (hDHODH): 50 nM | IC50 (LASV Ba366): 600 nM

CCC(C)(C)c1cccc2cc(CNC(=O)Nc3ccccc3C(=O)O)oc12 [Example 1]
IC50 (hDHODH): 9.2 nM | IC50 (CCHFV Afg 09-2990): 100 nM | CC50 (in vitro): > 1000 nM | amide cleavage (S9 metabolism assay): no amide cleavage | Metabolic stability [% remaining at 1h in rat S9 fraction] (S9 metabolism assay): 68.2% | IC50 (EBOV Mayinga): 14 nM | IC50 (LASV Ba366): 35 nM | IC50 [1]: ~150 nM | logD [2]: 2.98 | Papp at 5 h, 200 µM [3]: 5.74 ×10⁻⁶ cm/s

O=C(NCc1cc2cc(F)cc(C(F)(F)F)c2o1)Nc1ccccc1C(=O)O [Example 3]
IC50 (hDHODH): ~230 nM

O=C(NCc1cc2cccc(C(F)(F)F)c2o1)Nc1ccccc1C(=O)O [Example 2, 2-(3-((7-(trifluoromethyl)benzofuran-2-yl)methyl)ureido)benzoic acid]
IC50 (hDHODH): 90.7 nM | amide cleavage (S9 metabolism assay): no amide cleavage | Metabolic stability [% remaining at 1h in rat S9 fraction] (S9 metabolism assay): 92.0% | IC50 (LASV Ba366): 1000 nM | logD [2]: 1.96 | Papp at 5 h, 200 µM [3]: 3.23 ×10⁻⁶ cm/s

O=C(Nc1cnccc1C(=O)O)Nc1cccc2ccccc12 [Example 18]
percentual inhibition of hDHODH (hDHODH; at a 1 µM concentration): 91% | IC50 (hDHODH): 81 nM | amide cleavage (S9 metabolism assay): did not show amide cleavage | Metabolic stability [% remaining at 1h in rat S9 fraction] (S9 metabolism assay): 89.6% | logD [2]: 0.32 | Papp at 5 h, 200 µM [3]: 6.84 ×10⁻⁶ cm/s
